Reference: patent US20240317706A1, “COMPOUNDS THAT MEDIATE PROTEIN DEGRADATION AND METHODS OF USE THEREOF” (Monte Rosa Therapeutics, Inc., priority 2021, published 2024)

What was measured:
CDK2 = molecular target: T1, CDK2 (Homo sapiens, UniProt P24941); experiment: NanoBiT assay (CDK2 degradation); assay type: cell-based; details: HEK293, HEK293 clonal line with CRISPR KI HiBiT tag on CDK2, Endurazine live cell substrate, 24 hours
T1 construct: HEK293 clonal lines with CRISPR KI HiBiT tag on CDK2 proteins; host or cells: HEK293 clonal line, CRISPR knock-in HiBiT-CDK2, stably expressing LgBiT
Experimental: HEK293 clonal lines with CRISPR KI HiBiT tag on either CDK2 proteins and stably expressing LgBiT protein were obtained from Promega (Madison, WI). Cells were plated at 5000 cells per well using Multiflo (BioTek) in 384-well white solid bottom plates (Corning, 3570BC) in 25 ul volume in DMEM media (DMEM, high glucose, HEPES, no phenol red (ThermoFisher Scientific, 21063029)) containing 10% FBS (Corning, 35-075-CV), 1% Penicillin/Streptomycin ((ThermoFisher Scientific, 15140-122), and 1% Endurazine (Nano-Glo Endurazine Live Cell Substrate (Promega, N2571)). Cells were incubated for 16 hours at 37 C, 5% CO2. 75 nL of a compound at 30 μM were dosed into the plate using an Echo® 650 liquid handler (Labcyte). Cells were incubated at 37° C., 5% CO2 for 24 hours and then signal was read on a Pherastar FSX using “LUM plus” optic module.
Analysis was performed in Scinamic (Scinamic, Cambridge, MA). Luminescence response (R) was calculated by the formula: response=100*(S−N)/(P−N) where S is the signal of the well, N and P the mean negative and positive control values respectively of the same plate. The luminescence response was then fitted in Scinamic using a 3-parameter agonist logistic fit (hillslope=1, EC50>0, top/bottom unconstrained).

CRBN-DDB1 = CRBN-DDB1 (Homo sapiens, UniProt Q96SW2); experiment: Compound binding to CRBN by HTRF assay; details: CRBN-DDB1 2.5 nM, Cy5-Thalidomide 100 nM, 30 min; Ki from geometric mean IC50 by Cheng-Prustoff transformation
Chain of CRBN-DDB1 (Q96SW2 whole entry): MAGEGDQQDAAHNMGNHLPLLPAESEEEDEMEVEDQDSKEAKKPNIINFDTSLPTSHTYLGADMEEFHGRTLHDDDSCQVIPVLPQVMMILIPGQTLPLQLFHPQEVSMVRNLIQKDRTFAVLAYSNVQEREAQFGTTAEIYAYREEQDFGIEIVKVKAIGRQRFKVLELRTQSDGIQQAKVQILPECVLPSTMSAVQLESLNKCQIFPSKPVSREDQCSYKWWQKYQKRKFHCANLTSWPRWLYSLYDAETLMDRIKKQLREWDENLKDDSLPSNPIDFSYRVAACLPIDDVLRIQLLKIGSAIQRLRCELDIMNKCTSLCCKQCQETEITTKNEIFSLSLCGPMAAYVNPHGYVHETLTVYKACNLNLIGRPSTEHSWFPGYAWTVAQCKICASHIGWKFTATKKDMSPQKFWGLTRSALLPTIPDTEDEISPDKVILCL
Chain of CRBN-DDB1 (Q16531 whole entry partner): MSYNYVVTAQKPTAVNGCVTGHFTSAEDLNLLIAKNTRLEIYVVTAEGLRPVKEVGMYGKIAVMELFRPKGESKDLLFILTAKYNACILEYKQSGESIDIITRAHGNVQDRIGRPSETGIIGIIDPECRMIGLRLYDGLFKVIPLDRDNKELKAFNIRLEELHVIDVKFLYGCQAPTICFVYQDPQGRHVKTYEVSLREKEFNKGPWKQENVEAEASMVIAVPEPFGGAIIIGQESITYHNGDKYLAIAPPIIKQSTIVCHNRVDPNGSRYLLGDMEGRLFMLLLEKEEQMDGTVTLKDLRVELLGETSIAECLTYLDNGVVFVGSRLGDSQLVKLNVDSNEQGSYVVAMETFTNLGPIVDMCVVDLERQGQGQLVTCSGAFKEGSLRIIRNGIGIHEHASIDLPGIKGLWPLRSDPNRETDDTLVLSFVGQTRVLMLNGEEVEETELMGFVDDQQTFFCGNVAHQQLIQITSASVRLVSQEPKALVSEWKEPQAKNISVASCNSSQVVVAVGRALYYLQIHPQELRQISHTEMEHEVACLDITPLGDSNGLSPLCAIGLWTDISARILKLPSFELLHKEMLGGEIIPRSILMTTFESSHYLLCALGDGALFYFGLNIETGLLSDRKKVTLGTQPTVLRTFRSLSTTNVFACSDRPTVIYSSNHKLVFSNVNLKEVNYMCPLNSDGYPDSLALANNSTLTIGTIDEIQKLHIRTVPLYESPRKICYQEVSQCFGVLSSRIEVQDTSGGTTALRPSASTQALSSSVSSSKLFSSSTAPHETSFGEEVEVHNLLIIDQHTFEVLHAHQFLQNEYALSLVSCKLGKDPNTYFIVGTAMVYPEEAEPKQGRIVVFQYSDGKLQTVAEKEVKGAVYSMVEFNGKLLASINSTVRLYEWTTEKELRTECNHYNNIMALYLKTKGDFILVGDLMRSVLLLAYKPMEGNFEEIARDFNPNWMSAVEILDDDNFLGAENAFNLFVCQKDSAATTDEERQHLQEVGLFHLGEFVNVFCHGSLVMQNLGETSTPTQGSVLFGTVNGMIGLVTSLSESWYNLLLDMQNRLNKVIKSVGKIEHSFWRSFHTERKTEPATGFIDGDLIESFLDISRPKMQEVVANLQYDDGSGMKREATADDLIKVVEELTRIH
Experimental: Compound activity was monitored in a Homogenous Time-Resolved Fluorescence (HTRF) assay using 1-[5-({2-[2-(2-{[2-(2,6-dioxopiperidin-3-yl)-1,3-dioxo-2,3-dihydro-1H-isoindol-4-yl]oxy}acetamido)ethoxy]ethyl}carbamoyl)pentyl]-3,3-dimethyl-2-[(1E,3E)-5-[(2E)-1,3,3-trimethyl-5-sulfo-2,3-dihydro-1H-indol-2-ylidene]penta-1,3-dien-1-yl]-3H-indol-1-ium-5-sulfonate as a fluorescent probe. Biochemical assays were conducted in Greiner white 384 well HiBase plates (Cat. No 784075-25) in 10 μL total volume. A one pot detection solution of CRBN-DDB1 (2.5 nM), Anti-His Terbium Cryptate Gold (1×, PerkinElmer Cat. #: 61HI2TLB), and Cy5-Thalidomide (100 nM, Tenova Cat.: T52461) was prepared in 20 mM HEPES, 20 mM NaCl, 0.2 mM TCEP, 0.2 mM EDTA, and 0.005% Tween20 was dispensed to each assay plate. Compounds were stored in dry, ambient temperatures at 10 mM. A 10-point, 1:3 dilution series was prepared from 10 mM stock concentrations in Echo-compatible LDV plates. 10 nL of each compound dilution series was dispensed into assays wells using an Echo 650 (Labcyte inc. USA). 10 nL of 10 mM Lenalidomide was transferred into the active-control wells for the assay and 10 nL of DMSO was transferred into the neutral-control wells. The assay was then allowed to incubate for 30 min at ambient temperature after transferring compound. Plate measurements were taken on a Pherastar FSX (BMG Labtech, Germany) using the HTRF Red filter (Ex. 337 nm, em1: 620 nm, em2: 665 nm) (Flashes: 50, Integration time: 60-400 us, Z-height: 10 mm, Ratio-multiplier: 10,000). The HTRF signal was then subsequently normalized to the neutral and active controls. Analysis and IC50 values were derived using KNIME analytics (KNIME Zurich) transformation and fitting within Collaborative Drug Discovery (Collaborative Drug Discovery USA). Ki was derived from the geometric mean of the IC50 values using the Cheng-Prustoff transformation.

Row | SMILES | Dmax (CDK2) [%] | Ki (CRBN-DDB1) [nM]
1 | O=C1CCC(N2Cc3ccc(CNC(=O)OC(CC4CC4)C4CC5(CCC5)C4)cc3C2=O)C(=O)N1 (centres unmarked) [Compound 110, 2-cyclopropyl-1-(spiro[3.3]heptan-2-yl)ethyl ((2-(2,6-dioxopiperidin-3-yl)-3-oxoisoindolin-5-yl)methyl)carbamate] | 10 to 50 | 100 to 1000
2 | O=C1CCC(N2Cc3ccc(CNC(=S)OCC4CC5(CCC5)C4)cc3C2=O)C(=O)N1 (centres unmarked) [Compound 111, O-(spiro[3.3]heptan-2-ylmethyl) ((2-(2,6-dioxopiperidin-3-yl)-3-oxoisoindolin-5-yl)methyl)carbamothioate] | 10 to 50 | ≤ 100
3 | CN(C)C(=O)N1CC(OC(=O)NCc2ccc3c(c2)C(=O)N(C2CCC(=O)NC2=O)C3)C1 (centres unmarked) [Compound 112, 1-(dimethylcarbamoyl)azetidin-3-yl ((2-(2,6-dioxopiperidin-3-yl)-3-oxoisoindolin-5-yl)methyl)carbamate] | 10 to 50 | 100 to 1000
4 | CC(OC(=O)NCc1ccc2c(c1)C(=O)N(C1CCC(=O)NC1=O)C2)C1CC2(CCC2)C1 (centres unmarked) [Compound 113, 1-(spiro[3.3]heptan-2-yl)ethyl ((2-(2,6-dioxopiperidin-3-yl)-3-oxoisoindolin-5-yl)methyl)carbamate] | 10 to 50 | 100 to 1000
5 | CC(NC(=O)OCC1CC2(CCC2)C1)c1ccc2c(c1)C(=O)N(C1CCC(=O)NC1=O)C2 (centres unmarked) [Compound 114] | 10 to 50 | 100 to 1000
6 | O=C1CCC(N2Cc3ccc(CNC(=O)OCC4CC5(CCCC5)C4)cc3C2=O)C(=O)N1 (centres unmarked) [Compound 115, spiro[3.4]octan-2-ylmethyl ((2-(2,6-dioxopiperidin-3-yl)-3-oxoisoindolin-5-yl)methyl)carbamate] | 50 to 80 | 100 to 1000
7 | CC(C)[C@@H]1C[C@H]1COC(=O)NCc1ccc2c(c1)C(=O)N(C1CCC(=O)NC1=O)C2 (stereo partly drawn) [Compound 116, ((1R,2S)-2-isopropylcyclopropyl)methyl ((2-(2,6-dioxopiperidin-3-yl)-3-oxoisoindolin-5-yl)methyl)carbamate] | 10 to 50 | 100 to 1000
8 | O=C1CCC(N2C(=O)c3ccc(CNC(=O)OCC4CC5(CCC5)C4)cc3C2=O)C(=O)N1 (centres unmarked) [Compound 117, spiro[3.3]heptan-2-ylmethyl ((2-(2,6-dioxopiperidin-3-yl)-1,3-dioxoisoindolin-5-yl)methyl)carbamate] | > 80 | 100 to 1000
9 | O=C1CCC(N2Cc3ccc(C4(NC(=O)OCC5CC6(CCC6)C5)CC4)cc3C2=O)C(=O)N1 (centres unmarked) [Compound 118, spiro[3.3]heptan-2-ylmethyl (1-(2-(2,6-dioxopiperidin-3-yl)-3-oxoisoindolin-5-yl)cyclopropyl)carbamate] | 50 to 80 | 100 to 1000
10 | C[C@H]1C[C@H](COC(=O)NCc2ccc3c(c2)C(=O)N(C2CCC(=O)NC2=O)C3)C1 (some centres unmarked) [Compound 119] | 10 to 50 | 100 to 1000
11 | C[C@H]1C[C@@H](COC(=O)NCc2ccc3c(c2)C(=O)N(C2CCC(=O)NC2=O)C3)C1 (some centres unmarked) [Compound 120, ((1s,3s)-3-methylcyclobutyl)methyl ((2-(2,6-dioxopiperidin-3-yl)-3-oxoisoindolin-5-yl)methyl)carbamate] | 10 to 50 | 100 to 1000
12 | O=C1CCC(N2Cc3ccc(CNC(=O)OC4CC5(CCCC5)C4)cc3C2=O)C(=O)N1 (centres unmarked) [Compound 121, spiro[3.4]octan-2-yl ((2-(2,6-dioxopiperidin-3-yl)-3-oxoisoindolin-5-yl)methyl)carbamate] | 10 to 50 | 100 to 1000
13 | O=C1CCC(N2Cc3c(F)cc(CNC(=O)OCC4CC5(CCC5)C4)cc3C2=O)C(=O)N1 (centres unmarked) [Compound 122, spiro[3.3]heptan-2-ylmethyl ((2-(2,6-dioxopiperidin-3-yl)-7-fluoro-3-oxoisoindolin-5-yl)methyl)carbamate] | 50 to 80 | 100 to 1000
14 | O=C1CCC(N2Cc3cc(F)c(CNC(=O)OCC4CC5(CCC5)C4)cc3C2=O)C(=O)N1 (centres unmarked) [Compound 123, spiro[3.3]heptan-2-ylmethyl ((2-(2,6-dioxopiperidin-3-yl)-6-fluoro-3-oxoisoindolin-5-yl)methyl)carbamate] | 10 to 50 | 100 to 1000
15 | O=C1CCC(N2Cc3ccc(CNC(=O)OCCC4CC5(CCC5)C4)cc3C2=O)C(=O)N1 (centres unmarked) [Compound 124, 2-(spiro[3.3]heptan-2-yl)ethyl ((2-(2,6-dioxopiperidin-3-yl)-3-oxoisoindolin-5-yl)methyl)carbamate] | 10 to 50 | 100 to 1000
16 | O=C1CCC(N2Cc3ccc(CNC(=O)OCC4CC5(C4)CC(F)(F)C5)cc3C2=O)C(=O)N1 (centres unmarked) [Compound 125, (6,6-difluorospiro[3.3]heptan-2-yl)methyl ((2-(2,6-dioxopiperidin-3-yl)-3-oxoisoindolin-5-yl)methyl)carbamate] | 10 to 50 | 100 to 1000
17 | O=C1CCC(N2Cc3ccc(CNC(=O)OCC4CC5(CC5)C4)cc3C2=O)C(=O)N1 (centres unmarked) [Compound 126, spiro[2.3]hexan-5-ylmethyl ((2-(2,6-dioxopiperidin-3-yl)-3-oxoisoindolin-5-yl)methyl)carbamate] | 10 to 50 | 100 to 1000
18 | O=C1CCC(N2Cc3ccc(CNC(=O)OCC4CC5(C4)CC4(CCC4)C5)cc3C2=O)C(=O)N1 (centres unmarked) [Compound 127, dispiro[3.1.36.14]decan-2-ylmethyl((2-(2,6-dioxopiperidin-3-yl)-3-oxoisoindolin-5-yl)methyl)carbamate] | 50 to 80 | ≤ 100
19 | O=C1CCC(N2Cc3ccc(CNC(=O)OCCCC4CCC4)cc3C2=O)C(=O)N1 (centres unmarked) [Compound 128, 3-cyclobutylpropyl ((2-(2,6-dioxopiperidin-3-yl)-3-oxoisoindolin-5-yl)methyl)carbamate] | 10 to 50 | 100 to 1000
20 | CC1(C)[C@H]2CC=C(CCOC(=O)NCc3ccc4c(c3)C(=O)N(C3CCC(=O)NC3=O)C4)[C@@H]1C2 (stereo partly drawn) [Compound 129, 2-((1R,5S)-6,6-dimethylbicyclo[3.1.1]hept-2-en-2-yl)ethyl ((2-(2,6-dioxopiperidin-3-yl)-3-oxoisoindolin-5-yl)methyl)carbamate] | 10 to 50 | 100 to 1000
21 | O=C1CCC(N2Cc3ccc(CNC(=O)OC4CCC5(CC4)CC5)cc3C2=O)C(=O)N1 (centres unmarked) [Compound 130, spiro[2.5]octan-6-yl ((2-(2,6-dioxopiperidin-3-yl)-3-oxoisoindolin-5-yl)methyl)carbamate] | 10 to 50 | 100 to 1000
22 | CC(C)(C)C12CC(COC(=O)NCc3ccc4c(c3)C(=O)N(C3CCC(=O)NC3=O)C4)(C1)C2 (centres unmarked) [Compound 131, (3-(tert-butyl)bicyclo[1.1.1]pentan-1-yl)methyl((2-(2,6-dioxopiperidin-3-yl)-3-oxoisoindolin-5-yl)methyl)carbamate] | 10 to 50 | 100 to 1000
23 | O=C1CCC(N2Cc3ccc(CNC(=O)OC[C@@H]4C[C@H]4c4ccccc4)cc3C2=O)C(=O)N1 (stereo partly drawn) [Compound 132, ((1R,2R)-2-phenylcyclopropyl)methyl ((2-(2,6-dioxopiperidin-3-yl)-3-oxoisoindolin-5-yl)methyl)carbamate] | 10 to 50 | 100 to 1000
24 | O=C1CCC(N2Cc3ccc(CNC(=O)OC4CCC5(CCC5)CC4)cc3C2=O)C(=O)N1 (centres unmarked) [Compound 133, spiro[3.5]nonan-7-yl ((2-(2,6-dioxopiperidin-3-yl)-3-oxoisoindolin-5-yl)methyl)carbamate] | 10 to 50 | 100 to 1000
25 | CC1(CCCCOC(=O)NCc2ccc3c(c2)C(=O)N(C2CCC(=O)NC2=O)C3)CC1 (centres unmarked) [Compound 134, 4-(1-methylcyclopropyl)butyl ((2-(2,6-dioxopiperidin-3-yl)-3-oxoisoindolin-5-yl)methyl)carbamate] | 10 to 50 | ≤ 100
